{
  "source": "ChEMBL document CHEMBL1201862",
  "about": "“PubChem BioAssay data set” (2004)",
  "key": {"[1]": {"test": "CEM21 lymphoblast cell cytotoxicity, dose response, cytotoxicity control for viral fusion inhibitor project, CellTiter-Glo luminescence, cherry-picked (AID 652042);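 note: potency for signal decrease meaning cytotoxicity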", "assay_type": "functional, cell-based"}, "[2]": {"test": "inhibitors of HIV Env-driven cell fusion, dose response, cherry-pick (AID 652057)", "assay_type": "functional, cell-based"}, "[3]": {"test": "off-target signal loss in HeLa-CEM21 co-culture – HeLa F-luc CTL cells, cherry-picked, counter-screen for HIV-1 Env fusion inhibitor project, dose response (AID 652040);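 note: potency for signal decrease marking cytotoxic or nonspecific inhibition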", "assay_type": "functional, cell-based"}, "[4]": {"test": "ZM109 Env clade C HIV-1 fusion inhibitors, dose response, HeLa effector, CEM target cells, luciferase, cherry-pick (AID 652058)", "assay_type": "functional, cell-based"}, "[5]": {"test": "inhibitors of clade B AD8 Env fusion, dose response, cell-based, cherry-pick (AID 652062);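 note: potency is for inhibitors of fusion seen as a drop in luminescence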", "assay_type": "functional"}, "Mu-type opioid receptor": {"molecular_target": "Mu-type opioid receptor (Homo sapiens, UniProt P35372)", "sequence (P35372 whole entry)": "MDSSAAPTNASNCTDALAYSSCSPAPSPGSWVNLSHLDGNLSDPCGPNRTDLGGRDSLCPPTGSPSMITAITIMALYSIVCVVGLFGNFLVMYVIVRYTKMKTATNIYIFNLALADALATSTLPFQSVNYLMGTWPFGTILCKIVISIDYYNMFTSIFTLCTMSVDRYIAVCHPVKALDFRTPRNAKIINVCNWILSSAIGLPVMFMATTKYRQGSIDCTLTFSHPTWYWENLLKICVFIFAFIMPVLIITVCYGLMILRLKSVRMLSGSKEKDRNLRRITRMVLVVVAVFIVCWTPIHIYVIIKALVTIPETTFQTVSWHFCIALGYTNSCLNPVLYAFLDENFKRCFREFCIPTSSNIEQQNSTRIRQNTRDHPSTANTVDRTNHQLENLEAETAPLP", "assay_type": "functional, cell-based"}, "[6]": {"molecular_target": "Fructose-bisphosphate aldolase (Mycobacterium tuberculosis, UniProt P9WQA3)", "sequence (P9WQA3 whole entry)": "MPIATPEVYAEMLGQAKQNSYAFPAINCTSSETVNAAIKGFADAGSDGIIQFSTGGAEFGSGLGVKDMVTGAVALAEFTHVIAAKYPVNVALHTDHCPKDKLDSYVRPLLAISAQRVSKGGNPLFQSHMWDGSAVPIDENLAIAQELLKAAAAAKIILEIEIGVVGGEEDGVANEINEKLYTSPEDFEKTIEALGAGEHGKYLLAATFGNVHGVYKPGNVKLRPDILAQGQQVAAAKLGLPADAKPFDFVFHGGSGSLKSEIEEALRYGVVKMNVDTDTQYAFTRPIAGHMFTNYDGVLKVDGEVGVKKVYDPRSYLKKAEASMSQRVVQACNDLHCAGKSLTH", "test": "Fluorescence-based biochemical high throughput dose response assay for inhibitors of the fructose-bisphosphate aldolase (FBA) of M. tuberculosis.", "assay_type": "functional"}, "[7]": {"test": "cytotoxicity in HMLE control line with eGFP shRNA, dose response, counter-screen for HMLE_sh_ECad selective toxicity project, cell-based, HMLE_sh_eGFP, luminescence (AID 463074);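 note: HMLE human mammary epithelial cells expressing control shRNA against eGFP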", "assay_type": "functional, Homo sapiens"}, "[8]": {"molecular_target": "T1, Methionyl-tRNA synthetase, putative (Trypanosoma brucei brucei, UniProt Q38C91)", "T1 sequence (Q38C91 whole entry)": "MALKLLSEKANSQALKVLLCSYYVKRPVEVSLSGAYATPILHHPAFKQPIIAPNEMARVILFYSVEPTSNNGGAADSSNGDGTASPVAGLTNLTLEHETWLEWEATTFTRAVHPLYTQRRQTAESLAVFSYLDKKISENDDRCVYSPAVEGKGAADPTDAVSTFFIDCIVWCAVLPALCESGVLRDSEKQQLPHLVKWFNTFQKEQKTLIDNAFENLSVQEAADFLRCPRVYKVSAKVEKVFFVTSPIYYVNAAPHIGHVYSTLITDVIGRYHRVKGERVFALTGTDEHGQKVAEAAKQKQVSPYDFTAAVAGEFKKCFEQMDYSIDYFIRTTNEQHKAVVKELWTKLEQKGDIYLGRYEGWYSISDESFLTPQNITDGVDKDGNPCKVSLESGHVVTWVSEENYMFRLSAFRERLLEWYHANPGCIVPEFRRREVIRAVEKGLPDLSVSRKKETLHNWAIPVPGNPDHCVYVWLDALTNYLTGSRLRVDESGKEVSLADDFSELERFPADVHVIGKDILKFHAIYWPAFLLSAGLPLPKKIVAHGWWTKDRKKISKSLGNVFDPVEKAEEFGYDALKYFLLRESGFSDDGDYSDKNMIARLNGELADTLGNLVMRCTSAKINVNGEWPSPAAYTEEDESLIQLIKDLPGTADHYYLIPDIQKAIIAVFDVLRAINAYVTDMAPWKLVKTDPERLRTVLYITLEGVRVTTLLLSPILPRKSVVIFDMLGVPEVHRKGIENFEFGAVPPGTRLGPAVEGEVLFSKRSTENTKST", "assay_type": "functional, Trypanosoma brucei brucei strain 927/4 GUTat10.1"}, "[9]": {"test": "Counterscreen for inhibitors of Trypanosoma brucei methionyl tRNA synthetase (MetRS): Luminescence-based cell-based high throughput dose response assay to identify compounds that are cytotoxic to Jurkat human T lymphocyte cells.", "assay_type": "functional"}, "[10]": {"test": "Luminescence Cell-Based Dose Retest to Confirm Inhibitors of Cancer Stem Cells. [Related pubchem assays (depositor defined):AID2717, AID2721]", "assay_type": "functional", "conditions": "Homo sapiens"}, "[11]": {"molecular_target": "T1, Methionyl-tRNA synthetase, putative", "assay_type": "functional, Trypanosoma brucei brucei strain 927/4 GUTat10.1", "remark": "listed apart in the source"}, "[12]": {"molecular_target": "T2, Sentrin-specific protease 1 (Homo sapiens, UniProt Q9P0U3)", "T2 sequence (Q9P0U3 whole entry)": "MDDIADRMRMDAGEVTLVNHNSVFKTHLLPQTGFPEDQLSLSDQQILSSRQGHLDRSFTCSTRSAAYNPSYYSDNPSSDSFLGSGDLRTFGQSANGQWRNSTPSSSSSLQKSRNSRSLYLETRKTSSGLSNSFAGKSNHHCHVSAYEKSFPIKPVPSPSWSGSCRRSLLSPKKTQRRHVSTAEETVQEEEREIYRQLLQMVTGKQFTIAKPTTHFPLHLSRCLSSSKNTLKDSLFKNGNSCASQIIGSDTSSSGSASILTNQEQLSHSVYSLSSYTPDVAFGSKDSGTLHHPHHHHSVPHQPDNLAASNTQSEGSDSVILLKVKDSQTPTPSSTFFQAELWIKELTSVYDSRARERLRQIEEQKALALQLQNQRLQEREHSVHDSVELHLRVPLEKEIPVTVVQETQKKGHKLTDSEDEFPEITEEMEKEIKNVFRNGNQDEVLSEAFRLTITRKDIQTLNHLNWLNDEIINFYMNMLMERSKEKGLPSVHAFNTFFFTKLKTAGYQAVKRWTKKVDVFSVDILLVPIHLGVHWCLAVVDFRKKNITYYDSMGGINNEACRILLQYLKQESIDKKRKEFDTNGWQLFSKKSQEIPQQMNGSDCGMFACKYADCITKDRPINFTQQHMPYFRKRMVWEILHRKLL", "test": "Dose response confirmation of small molecule inhibitors of the catalytic domain of the SUMO protease, SENP1 in a FRET assay.", "assay_type": "functional", "conditions": "read-out: IC50_Mean"}, "[13]": {"molecular_target": "T2, Sentrin-specific protease 1", "test": "potency of human SENP1 inhibitors, dose response, biochemical, kinetic FRET (AID 651697)", "assay_type": "functional", "conditions": "read-out: IC50_Mean"}},
  "note": "Where a name gives a salt, the structure may show the parent alone. Calls of active or inactive are those of the source.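 Throughout, for EC50: U2OS cells with beta-arrestin recruitment to OPRM1 by beta-gal complementation.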",
  "data": [
    {"smiles": "OCC1OC(n2ccc3c(NO)ncnc32)C(O)C1O", "note": "(centres undefined)", "values": [
      {"measurement": "AC50", "setting": "[1]", "value": "0.641 µM (active)"},
      {"measurement": "AC50", "setting": "[2]", "value": "2.35 µM (active)"},
      {"measurement": "AC50", "setting": "[3]", "value": "2.65 µM (active)"},
      {"measurement": "AC50", "setting": "[4]", "value": "2.44 µM (active)"},
      {"measurement": "AC50", "setting": "[5]", "value": "4.53 µM (active)"}
    ]},
    {"smiles": "CC(CCc1ccc(O)cc1)NCCc1ccc(O)c(O)c1", "note": "(centres undefined) [DOBUTAMINE HYDROCHLORIDE]", "values": [
      {"measurement": "EC50", "setting": "Mu-type opioid receptor", "value": "92.5 µM (inactive)"}
    ]},
    {"smiles": "Cc1c(C)c2cc(Cl)c(OCC(=O)NCCCN3CCCC3=O)cc2oc1=O", "values": [
      {"measurement": "IC50", "setting": "[6]", "value": "3.71 µM (active)"}
    ]},
    {"smiles": "O=C(COc1ccc(Cl)cc1Cl)N/N=C/c1ccc[nH]1", "values": [
      {"measurement": "AC50", "setting": "[7]", "value": "20.7 µM (active)"},
      {"measurement": "IC50", "setting": "[8]", "value": "22.4 µM (inactive)"},
      {"measurement": "IC50", "setting": "[9]", "value": "22.2 µM (inactive)"},
      {"measurement": "AC50", "setting": "[10]", "value": "1.92 µM (active)"},
      {"measurement": "IC50", "setting": "[11]", "value": "13.2 µM (inactive)"}
    ]},
    {"smiles": "CN(C)CCNc1cccc2sc3ccc(O)cc3c(=O)c12", "values": [
      {"measurement": "IC50", "setting": "[12]", "value": "26 µM (inactive)"},
      {"measurement": "IC50", "setting": "[13]", "value": "37.8 µM (inactive)"}
    ]}
  ]
}
